PubChem BioAssay (NCI)
Values joined by “and” are separate entries in the source; they are usually repeats but may differ in a detail not shown here. Equal values may be shown once.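 Briefly, cells in 96-well plates were exposed to five compound concentrations for 48 h, and endpoints were estimated by linear interpolation. At the GI50, growth is halved. TGI marks complete inhibition of growth.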

Key:
Assay in all cases: NCI-60 cell line screen, 48 h
UACC-257 melanoma = tested on: UACC-257 melanoma
M14 melanoma = tested on: M14 melanoma
OVCAR-5 ovarian = tested on: OVCAR-5 ovarian
NCI-H522 lung = tested on: NCI-H522 lung
RPMI-8226 leukemia = tested on: RPMI-8226 leukemia
EKVX NSCLC = tested on: EKVX NSCLC
T-47D breast = tested on: T-47D breast
MCF7 breast = tested on: MCF7 breast
DU-145 prostate = tested on: DU-145 prostate
PC-3 prostate = tested on: PC-3 prostate

SMILES: COC(=O)c1c2c(cc3c1CC1(Cc4cc5c(c(C(C)=O)c4C1)CCC5)C3)CCC2 (stereo unspecified)
- TGI (UACC-257 melanoma): > 100 µM
- TGI (M14 melanoma): > 100 µM
- TGI (OVCAR-5 ovarian): > 100 µM
- TGI (NCI-H522 lung): > 100 µM

SMILES: COc1ccc(CCc2cc(OC)cc(OC)c2)cc1
- TGI (UACC-257 melanoma): > 100 µM
- TGI (RPMI-8226 leukemia): 94.8 µM
- TGI (M14 melanoma): > 100 µM
- TGI (OVCAR-5 ovarian): > 100 µM
- TGI (NCI-H522 lung): > 41 µM
- TGI (EKVX NSCLC): > 100 µM

SMILES: CN(C)c1nc2ccccc2c2c1c1c(n2Cc2ccccc2)-c2ccccc2C1=O
- GI50 (UACC-257 melanoma): > 100 µM
- TGI (UACC-257 melanoma): > 100 µM
- GI50 (RPMI-8226 leukemia): > 100 µM
- TGI (RPMI-8226 leukemia): > 100 µM
- GI50 (M14 melanoma): > 100 µM
- TGI (M14 melanoma): > 100 µM
- GI50 (OVCAR-5 ovarian): > 100 µM
- TGI (OVCAR-5 ovarian): > 100 µM
- GI50 (T-47D breast): 55.6 µM
- TGI (T-47D breast): > 100 µM
- GI50 (MCF7 breast): 71.4 µM
- TGI (MCF7 breast): > 100 µM
- GI50 (NCI-H522 lung): > 100000 nM
- TGI (NCI-H522 lung): > 100 µM
- GI50 (DU-145 prostate): > 100 µM
- TGI (DU-145 prostate): > 100 µM
- GI50 (EKVX NSCLC): > 100 µM
- TGI (EKVX NSCLC): > 100 µM

SMILES: Cc1cc(N(CCC#N)CCC#N)ccc1N=Nc1ccc(Br)cc1
- TGI (UACC-257 melanoma): > 100 µM
- TGI (RPMI-8226 leukemia): > 100 µM
- TGI (M14 melanoma): > 66 µM
- TGI (OVCAR-5 ovarian): > 100 µM
- TGI (NCI-H522 lung): 59.8 µM
- TGI (EKVX NSCLC): > 74.4 µM

SMILES: CC(C)=CCC(OC(=O)C=C(C)C)C1=CC(=O)c2c(O)ccc(O)c2C1=O (stereo unspecified)
- GI50 (UACC-257 melanoma): 1.51 µM
- TGI (UACC-257 melanoma): 4.15 µM and 2.5 µM
- GI50 (RPMI-8226 leukemia): 0.724 µM
- GI50 (M14 melanoma): 3.51 µM
- TGI (M14 melanoma): 9.57 µM
- GI50 (OVCAR-5 ovarian): 5.77 µM
- TGI (OVCAR-5 ovarian): 25.6 µM and 8.83 µM
- GI50 (MCF7 breast): 2.09 µM and 0.877 µM
- TGI (MCF7 breast): 7.86 µM and 2.93 µM
- GI50 (NCI-H522 lung): 414 nM and 104 nM
- TGI (NCI-H522 lung): 1.84 µM and 0.231 µM
- GI50 (PC-3 prostate): 1.55 µM
- TGI (PC-3 prostate): 8.74 µM
- GI50 (DU-145 prostate): 1.72 µM
- TGI (DU-145 prostate): 3.92 µM
- GI50 (EKVX NSCLC): 2.28 µM
- TGI (EKVX NSCLC): 6.2 µM and 2.2 µM

SMILES: CN1CCc2c1nc(-c1ccc(Cl)cc1)c1c2N(C)CC1
- TGI (UACC-257 melanoma): 32.7 µM
- TGI (RPMI-8226 leukemia): 37.1 µM
- TGI (M14 melanoma): 20.4 µM
- TGI (OVCAR-5 ovarian): 73.3 µM
- TGI (EKVX NSCLC): > 100 µM

SMILES: CC1=NN(C(=O)c2ccc(Cl)cc2)C(=O)/C1=C/c1ccccc1O
- TGI (UACC-257 melanoma): > 100 µM
- TGI (RPMI-8226 leukemia): > 100 µM
- TGI (M14 melanoma): > 100 µM
- TGI (OVCAR-5 ovarian): > 100 µM
- TGI (NCI-H522 lung): > 100 µM
- TGI (EKVX NSCLC): > 100 µM

SMILES: CC(C)OP(=O)(OC(C)C)/C(N)=N/Nc1ccc([N+](=O)[O-])cc1
- TGI (UACC-257 melanoma): > 100 µM
- TGI (RPMI-8226 leukemia): > 100 µM
- TGI (M14 melanoma): > 100 µM
- TGI (OVCAR-5 ovarian): > 100 µM
- TGI (NCI-H522 lung): > 100 µM
- TGI (EKVX NSCLC): > 100 µM

SMILES: COC(=O)CC(NC(=O)OCc1ccccc1)C(C(=O)OCc1ccccc1)C(C)(OC)OC (stereo unspecified)
- TGI (UACC-257 melanoma): 85.6 µM
- TGI (RPMI-8226 leukemia): 58.8 µM
- TGI (M14 melanoma): > 100 µM
- TGI (EKVX NSCLC): > 100 µM

SMILES: Cc1nn2c(/C=C3/C(=O)Nc4cc(Cl)ccc43)c(-c3ccccc3)nc2s1
- GI50 (UACC-257 melanoma): 2.65 µM
- TGI (UACC-257 melanoma): 8.32 µM
- GI50 (M14 melanoma): 6.54 µM
- TGI (M14 melanoma): > 100 µM
- GI50 (OVCAR-5 ovarian): > 100 µM
- TGI (OVCAR-5 ovarian): > 100 µM
- GI50 (T-47D breast): 1.75 µM
- TGI (T-47D breast): 4.04 µM
- GI50 (MCF7 breast): 5.84 µM
- TGI (MCF7 breast): > 100 µM
- GI50 (NCI-H522 lung): 1800 nM
- TGI (NCI-H522 lung): 4.11 µM
- GI50 (PC-3 prostate): 13.8 µM
- TGI (PC-3 prostate): > 100 µM
- GI50 (DU-145 prostate): 4.02 µM
- TGI (DU-145 prostate): 18.2 µM

SMILES: N.N.N.N.N.O=[N+]([O-])[O-].[Co+3].[O-][Cl+3]([O-])([O-])[O-]
- GI50 (UACC-257 melanoma): > 100 µM
- TGI (UACC-257 melanoma): > 100 µM
- GI50 (RPMI-8226 leukemia): > 100 µM
- TGI (RPMI-8226 leukemia): > 100 µM
- GI50 (M14 melanoma): > 100 µM
- TGI (M14 melanoma): > 100 µM
- GI50 (OVCAR-5 ovarian): > 100 µM
- TGI (OVCAR-5 ovarian): > 100 µM
- GI50 (NCI-H522 lung): > 100000 nM
- TGI (NCI-H522 lung): > 100 µM
- GI50 (EKVX NSCLC): > 100 µM
- TGI (EKVX NSCLC): > 100 µM

SMILES: CC(C)(C)C(=CS(=O)/N=C/c1ccccc1)C(C)(C)C (stereo unspecified)
- TGI (UACC-257 melanoma): > 100 µM
- TGI (RPMI-8226 leukemia): 46.3 µM
- TGI (M14 melanoma): > 100 µM
- TGI (OVCAR-5 ovarian): > 100 µM
- TGI (NCI-H522 lung): 63.2 µM
- TGI (EKVX NSCLC): > 100 µM

SMILES: CC(=O)OCC(=O)[C@@]12OC(C)(C)O[C@@H]1C[C@H]1[C@@H]3CC(C=O)=C4C=C(OCCCl)CC[C@]4(C)[C@@]3(F)[C@@H](O)C[C@@]12C
- TGI (UACC-257 melanoma): 80.6 µM
- TGI (RPMI-8226 leukemia): > 100 µM
- TGI (M14 melanoma): 61.7 µM
- TGI (OVCAR-5 ovarian): > 100 µM
- TGI (NCI-H522 lung): 92 µM
- TGI (EKVX NSCLC): > 100 µM

SMILES: O=c1ncccn1C1OC(CO)C(O)C1O (stereo unspecified)
- TGI (RPMI-8226 leukemia): > 100 µM
- TGI (M14 melanoma): > 100 µM
- TGI (OVCAR-5 ovarian): > 100 µM
- TGI (NCI-H522 lung): > 100 µM
- TGI (EKVX NSCLC): > 100 µM

SMILES: CC(=O)O[C@]1(C)OC(=O)[C@@H](CC(C)C)N1[N+](=O)[O-]
- TGI (UACC-257 melanoma): > 100 µM
- TGI (RPMI-8226 leukemia): > 100 µM
- TGI (M14 melanoma): > 100 µM
- TGI (OVCAR-5 ovarian): > 100 µM
- TGI (NCI-H522 lung): > 100 µM
- TGI (EKVX NSCLC): > 100 µM

SMILES: COc1ccc(/C(Cl)=C/c2cc(OC)ccc2OC)cc1
- TGI (UACC-257 melanoma): > 100 µM
- TGI (RPMI-8226 leukemia): > 100 µM
- TGI (M14 melanoma): > 100 µM
- TGI (NCI-H522 lung): > 100 µM
- TGI (EKVX NSCLC): > 100 µM

SMILES: Cc1c(-c2ccnc(N)n2)c2c(n1Cc1ccccc1)C(=O)c1ccccc1C2=O
- GI50 (UACC-257 melanoma): 23.2 µM
- TGI (UACC-257 melanoma): > 100 µM
- GI50 (RPMI-8226 leukemia): > 100 µM
- TGI (RPMI-8226 leukemia): > 100 µM
- GI50 (M14 melanoma): 16.2 µM
- TGI (M14 melanoma): > 100 µM
- GI50 (OVCAR-5 ovarian): 47.4 µM
- TGI (OVCAR-5 ovarian): > 100 µM
- GI50 (T-47D breast): 47.8 µM
- TGI (T-47D breast): > 100 µM
- GI50 (NCI-H522 lung): > 100000 nM
- TGI (NCI-H522 lung): > 100 µM
- GI50 (PC-3 prostate): 49.1 µM
- TGI (PC-3 prostate): > 100 µM
- GI50 (DU-145 prostate): 9.82 µM
- TGI (DU-145 prostate): 41.2 µM
- GI50 (EKVX NSCLC): 7.11 µM
- TGI (EKVX NSCLC): 41.2 µM
